≈ marks a conversion by molar mass, not a printed value. Like-named read-outs stand apart in the source and are kept apart here.
Legend:
RNA viruses = experiment: Antiviral activity across the panel of RNA viruses tested; format: cell-based; settings: 5 µM
Description: (§1) Cells were freeze-thawed twice.

[1] = WST-1 cellular toxicity assay, bone marrow-derived macrophages; settings: Swiss Webster, mouse
[2] = WST-1 cellular toxicity assay, HG23 replicon-bearing cells; format: cell-based; settings: human, HG23 Norwalk virus replicon-bearing cells, WST-1 viability
[3] = mouse
[4] = Aqueous solubility as per Lipinski et al.; settings: for solubility: kinetic from dmso stock
Sindbis virus = Sindbis virus infection of Vero cells, plaque assay; format: cell-based; settings: 5 µM, 30 minutes pre-treatment, MOI 5, 12 hours
Description: as §1

MNV-1 [5] = settings: 5 µM; for decrease in MNV-1 titers compared to DMSO: 30 minute pre-treatment, RAW 264.7, 8 hours; for viral titer decrease compared to DMSO: administered 1 hour post infection, RAW 264.7
La Crosse virus (LCV) = experiment: La Crosse virus infection of Be2-c cells, plaque assay; format: cell-based; settings: 5 µM, 30 minutes pre-treatment, MOI 5, 12 hours
Description: as §1

[6] = test system: Encephalomyocarditis virus (EMCV); experiment: Encephalomyocarditis virus infection of Vero cells, plaque assay; format: cell-based; settings: 5 µM, 30 minutes pre-treatment, MOI 5, 12 hours
Description: as §1

Tulane virus = Tulane virus infection of LLC-MK2 cells, plaque assay; format: cell-based; settings: 5 µM, 30 minutes pre-treatment, MOI 5, 24 hours
Description: as §1

Norwalk virus = experiment: HuNoV replicon assay in HG23 cells, Norwalk virus genomes by qRT-PCR; settings: for reduction of detectable Norwalk virus genomes compared to DMSO: 5 µM, 24 hours, HG23 cells; for EC50: Norwalk virus, HG23, 24 h, read-out: EC50 HG23
MNV-1 [7] = settings: previously determined by the authors; cited from earlier work
in vitro [8] = settings: Swiss Webster, mouse
in vitro [9] = settings: mouse
[10] = test system: Vesicular Stomatitis Virus (VSV); format: cell-based
physchem = settings: kinetic from dmso stock

| Compound | antiviral activity against any of the viruses tested (RNA viruses) | CC50 [1] | CC50 at 24 h [2] | CC50 [3] | solubility [4] | effect on Sindbis virus infectious titers (Sindbis virus) | expected aqueous solubility (not determined, limited availability) ([4]; relative to WP1130) | decrease in MNV-1 titers compared to DMSO (MNV-1 [5]) | viral titer decrease compared to DMSO (MNV-1 [5]) | effect on La Crosse virus infectious titers (La Crosse virus (LCV)) | effect on EMCV infectious titers [6] | effect on Tulane virus infectious titers (Tulane virus) | reduction of detectable Norwalk virus genomes compared to DMSO (Norwalk virus) | EC50 (Norwalk virus) | EC50 (MNV-1 [7]) | CC50 (in vitro [8]) | CC50 (in vitro [9]) | inhibition of VSV infection [10] | solubility (physchem) |
| --- | --- | --- | --- | --- | --- | --- | --- | --- | --- | --- | --- | --- | --- | --- | --- | --- | --- | --- | --- |
| CCC[C@H](NC(=O)/C=C/c1cccc(Br)n1)c1ccccc1 [Compound 1] | no antiviral activity | 10.4 µM | 7.2 µM | 24.7 µM | – | – | – | – | – | – | – | – | – | – | – | – | – | – | – |
| CCC[C@H](NC(=O)C(C#N)Cc1cccc(Br)n1)c1ccccc1 (stereo partly drawn) [Compound 2] | no antiviral activity | 8.53 µM | 8.71 µM | 24.9 µM | – | – | – | – | – | – | – | – | – | – | – | – | – | – | – |
| CCCC(NC(=O)/C(C#N)=C/c1cccc(Br)n1)c1ccc(OCCN(C)C)cc1 (stereo not drawn) [Compound 3] | no effect | 6.12 µM | 7.82 µM | 9.43 µM | 19 µM (≈ 8.96 µg/mL) | – | – | – | – | – | – | – | – | – | – | – | – | – | – |
| CCC(NC(=O)/C(C#N)=C/c1cccc(Br)n1)c1ccc(O)cc1 (stereo not drawn) [Compound 4] | – | 15.2 µM | 9.26 µM | 11 µM | – | only effective against Tulane virus | more soluble than WP1130 but less soluble than compound 7 | 1.95 log | 1.73 log | only effective against Tulane virus | only effective against Tulane virus | effective | approximately 30% | 6.52 µM | – | – | – | – | – |
| CCCC(NC(=O)/C(C#N)=C/c1cccnc1F)c1ccc(OCCN2CCOCC2)cc1 (stereo not drawn) [Compound 5] | – | 11.3 µM | 7.61 µM | 15.4 µM | 14 µM (≈ 6.34 µg/mL) | only effective against Tulane virus | – | 2.52 log | 2.67 log | only effective against Tulane virus | only effective against Tulane virus | effective | about 64% | 4.28 µM | – | – | – | – | – |
| CCCC(NC(=O)/C(C#N)=C/c1ccccn1)c1ccc(OCCN2CCOCC2)cc1 (stereo not drawn) [Compound 6] | – | 11.1 µM | 10.4 µM | 7.46 µM | 160 µM (≈ 69.5 µg/mL) | significantly reduced infectious titers | – | 2.55 log | 2.50 log | significantly reduced infectious titers | significantly reduced infectious titers | significantly reduced infectious titers | about 64% | 4.17 µM | – | – | – | – | – |
| CCCC(NC(=O)/C(C#N)=C/c1cccc(F)n1)c1ccc(OCCN2CCOCC2)cc1 (stereo not drawn) [Compound 7] | – | 7.11 µM | 6.12 µM | 13.7 µM | 14 µM (≈ 6.34 µg/mL) | significantly decreased infection | – | 2.60 log | 1.51 log | significantly decreased infection | not of EMCV, although a trend towards antiviral activity was present | significantly decreased infection | ~80% | 3.37 µM | – | – | – | – | – |
| CCC[C@H](NC(=O)/C(C#N)=C/c1cccc(Br)n1)c1ccccc1 [WP1130, reference compound] | – | – | 6.2 µM | – | – | significantly reduced infectious titers | – | 2.0 log | – | significantly reduced infectious titers | significantly reduced infectious titers | significantly reduced infectious titers | – | – | 5.06 µM | 6.46 µM | 9.95 µM | not inhibited | ~3.2 µM (≈ 1.23 µg/mL) |

Reference: PMC3983190, “Chemical Derivatives of a Small Molecule Deubiquitinase Inhibitor Have Antiviral Activity against Several RNA Viruses” (PLoS ONE, 2014)
